Key:
P-gp = P-gp (Homo sapiens, UniProt P08183)
OCT2 = molecular target: T1, OCT2 (Homo sapiens, UniProt O15244); experiment: Transporter inhibition, HEK293 cells; assay type: in vitro ADME; details: [14C]-metformin (10 μM), 1 and 10 μM tested
T1 construct: expressed in transfected cells; host or cells: HEK293
T1 sequence (O15244 1-555): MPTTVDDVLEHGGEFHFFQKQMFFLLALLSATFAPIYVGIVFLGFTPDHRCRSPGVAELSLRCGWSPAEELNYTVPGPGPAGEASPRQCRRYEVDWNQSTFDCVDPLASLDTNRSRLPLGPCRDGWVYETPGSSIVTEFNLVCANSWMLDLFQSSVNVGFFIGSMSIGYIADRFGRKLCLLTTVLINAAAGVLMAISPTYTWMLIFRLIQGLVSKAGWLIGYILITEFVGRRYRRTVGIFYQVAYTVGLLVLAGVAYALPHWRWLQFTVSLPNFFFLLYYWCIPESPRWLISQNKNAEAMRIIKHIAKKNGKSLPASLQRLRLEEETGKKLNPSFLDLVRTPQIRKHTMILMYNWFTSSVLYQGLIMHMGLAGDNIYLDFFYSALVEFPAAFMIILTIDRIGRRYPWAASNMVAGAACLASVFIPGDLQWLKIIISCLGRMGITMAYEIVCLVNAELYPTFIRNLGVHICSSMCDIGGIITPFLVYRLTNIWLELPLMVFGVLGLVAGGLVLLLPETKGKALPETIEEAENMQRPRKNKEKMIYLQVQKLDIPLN

[1] = male Sprague-Dawley rats; cited from earlier work
OAT1 = molecular target: T2, OAT1 (Homo sapiens, UniProt Q4U2R8); experiment: Transporter substrate evaluation, HEK293 cells; assay type: in vitro ADME; details: 1 and 10 μM
T2 construct: expressed in transfected cells; host or cells: HEK293
T2 sequence (Q4U2R8 1-563): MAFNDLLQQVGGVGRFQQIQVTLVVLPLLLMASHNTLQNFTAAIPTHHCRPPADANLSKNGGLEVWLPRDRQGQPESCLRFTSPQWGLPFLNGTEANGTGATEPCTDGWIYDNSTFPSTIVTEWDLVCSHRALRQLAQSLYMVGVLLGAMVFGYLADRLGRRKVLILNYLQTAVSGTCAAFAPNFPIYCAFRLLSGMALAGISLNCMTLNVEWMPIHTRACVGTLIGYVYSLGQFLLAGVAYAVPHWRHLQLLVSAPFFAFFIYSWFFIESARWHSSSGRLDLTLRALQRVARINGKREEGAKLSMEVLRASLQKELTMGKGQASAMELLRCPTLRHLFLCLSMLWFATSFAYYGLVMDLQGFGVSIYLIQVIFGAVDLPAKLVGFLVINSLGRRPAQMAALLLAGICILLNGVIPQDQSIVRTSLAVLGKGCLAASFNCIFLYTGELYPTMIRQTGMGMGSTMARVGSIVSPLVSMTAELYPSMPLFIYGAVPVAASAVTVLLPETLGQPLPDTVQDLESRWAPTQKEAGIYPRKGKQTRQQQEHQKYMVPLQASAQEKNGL

P-gp, sequence (P08183 whole entry): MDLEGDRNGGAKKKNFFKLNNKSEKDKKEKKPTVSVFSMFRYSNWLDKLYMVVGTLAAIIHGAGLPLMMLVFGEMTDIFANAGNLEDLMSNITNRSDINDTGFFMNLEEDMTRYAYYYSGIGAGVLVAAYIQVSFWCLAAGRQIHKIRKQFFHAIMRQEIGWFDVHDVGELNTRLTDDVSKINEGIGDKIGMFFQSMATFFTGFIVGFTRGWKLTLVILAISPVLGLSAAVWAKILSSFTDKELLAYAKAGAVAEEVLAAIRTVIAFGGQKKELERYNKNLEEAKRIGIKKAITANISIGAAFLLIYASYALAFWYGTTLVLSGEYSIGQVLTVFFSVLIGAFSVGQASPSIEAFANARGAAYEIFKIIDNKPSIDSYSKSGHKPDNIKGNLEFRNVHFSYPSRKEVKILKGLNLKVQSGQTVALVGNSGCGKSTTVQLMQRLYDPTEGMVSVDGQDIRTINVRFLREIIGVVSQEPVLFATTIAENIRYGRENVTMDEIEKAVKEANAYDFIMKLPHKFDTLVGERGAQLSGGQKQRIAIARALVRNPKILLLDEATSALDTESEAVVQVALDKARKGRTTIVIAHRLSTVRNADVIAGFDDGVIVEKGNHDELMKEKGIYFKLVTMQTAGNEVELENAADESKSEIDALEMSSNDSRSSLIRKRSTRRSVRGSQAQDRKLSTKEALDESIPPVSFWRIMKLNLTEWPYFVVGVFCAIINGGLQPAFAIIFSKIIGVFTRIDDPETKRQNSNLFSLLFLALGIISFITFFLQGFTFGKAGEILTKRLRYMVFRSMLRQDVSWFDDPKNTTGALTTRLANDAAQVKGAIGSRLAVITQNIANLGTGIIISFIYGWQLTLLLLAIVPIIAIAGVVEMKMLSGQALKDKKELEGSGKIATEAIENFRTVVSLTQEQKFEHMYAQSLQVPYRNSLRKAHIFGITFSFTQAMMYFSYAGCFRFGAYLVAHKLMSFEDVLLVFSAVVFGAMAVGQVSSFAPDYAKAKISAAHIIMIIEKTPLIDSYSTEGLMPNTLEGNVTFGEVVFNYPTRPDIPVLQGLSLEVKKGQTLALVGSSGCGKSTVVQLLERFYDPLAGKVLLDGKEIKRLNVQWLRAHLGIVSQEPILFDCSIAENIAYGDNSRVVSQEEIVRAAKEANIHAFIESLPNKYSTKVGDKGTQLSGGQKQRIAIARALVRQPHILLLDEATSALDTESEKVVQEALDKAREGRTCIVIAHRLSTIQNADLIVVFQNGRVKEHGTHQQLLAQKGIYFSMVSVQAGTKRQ

For `O=C(O)C[C@H]1CCc2c1[nH]c1ccc(OCc3ccc(C4CCCC4)c(C(F)(F)F)c3)cc21` [Compound 1, (R)-2-(7-(4-cyclopentyl-3-(trifluoromethyl)benzyloxy)-1,2,3,4-tetrahydrocyclopenta[b]indol-3-yl)acetic acid], which IC50 (P-gp) is on record?
The IC50 was about 100 µM.

What about the IC50 (OCT2) of the same compound?
The IC50 was over 10 µM.

What about the Bradycardia [1] of the same compound?
The Bradycardia was “no or substantially no bradycardia”.

And the “Potential substrate of OAT1” value (OAT1; HEK293 cells)?
Its value is “not a substrate of OAT1 and not a substrate and No”.

And the “Uptake ratio into OAT1-expressing cells” value (OAT1; absence and presence of probenecid (100 μM))?
The value was “less than two”.
